The text below walks through data of patent US7807702B2 (Eli Lilly and Company, priority 2005, dated 2010).

For this assay, the target named is T1, cloned human glucagon receptor (Homo sapiens, UniProt P47871).
T1 construct: The hGlucR cDNA is subcloned into the expression plasmid phD; expressed in transfected cells; host or cells: 293 HEK cells, hygromycin-selected; crude plasma membranes
Description: Glucagon Receptor (hGlucR) Binding Assay. The procedure: Crude plasma membranes are prepared using cells from suspension culture. […] The second supernate is combined with the first supernate.
The specific activity is 2200 Ci/mmol.

T1 sequence (P47871 26-477): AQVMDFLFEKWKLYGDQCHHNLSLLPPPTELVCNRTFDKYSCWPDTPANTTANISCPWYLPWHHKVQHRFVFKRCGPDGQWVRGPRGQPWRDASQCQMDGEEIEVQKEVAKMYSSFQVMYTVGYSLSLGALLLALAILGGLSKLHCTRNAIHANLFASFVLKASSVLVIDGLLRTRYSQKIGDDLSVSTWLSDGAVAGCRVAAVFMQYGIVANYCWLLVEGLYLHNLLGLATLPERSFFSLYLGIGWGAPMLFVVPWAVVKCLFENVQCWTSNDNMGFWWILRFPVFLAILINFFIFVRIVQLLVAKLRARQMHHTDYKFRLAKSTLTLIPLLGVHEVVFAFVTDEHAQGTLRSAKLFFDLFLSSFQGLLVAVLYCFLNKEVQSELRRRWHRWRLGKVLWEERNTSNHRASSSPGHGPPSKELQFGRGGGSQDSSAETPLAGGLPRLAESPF

Take `CCCC(Sc1cc(C)c(-c2ccc(C(F)(F)F)cc2)c(C)c1)c1ccc(C(=O)NCc2nnn[nH]2)s1` (stereo not shown): affinity was put at a Ki of 0.036 µM.
